Test results published in patent US6423689B1, “Peptidyl calcium channel blockers” (Warner-Lambert Company, priority 1997, dated 2002).

Target: T1, N-type Ca2+ channels in IMR-32 cells (Homo sapiens, UniProt Q00975)
T1 construct: host or cells: IMR-32 cells, differentiated with dibutyryl cAMP and bromodeoxyuridine
Assay: Inhibition of N-type calcium flux in IMR-32 cells (Indo-1 fluorescence, nitrendipine present)
Format: cell-based
Settings: for inhibition at 1 µM / inhibition at 10 µM: IMR-32; for IC50: IMR-32 cells, 5 μM nitrendipine, K+ depolarization
Outline: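 Differentiated IMR-32 cells (7–13 days) were loaded with 5 μM Indo-1 AM, preincubated with compound for 10 min at 30° C, and depolarized with KCl/CaCl2 stimulation solution, with 5 μM nitrendipine blocking L-channels. Peak-minus-basal 400/490 nm emission ratio was plotted against drug concentration, and IC50 came from four-parameter logistic fits.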

T1 sequence (Q00975 whole entry): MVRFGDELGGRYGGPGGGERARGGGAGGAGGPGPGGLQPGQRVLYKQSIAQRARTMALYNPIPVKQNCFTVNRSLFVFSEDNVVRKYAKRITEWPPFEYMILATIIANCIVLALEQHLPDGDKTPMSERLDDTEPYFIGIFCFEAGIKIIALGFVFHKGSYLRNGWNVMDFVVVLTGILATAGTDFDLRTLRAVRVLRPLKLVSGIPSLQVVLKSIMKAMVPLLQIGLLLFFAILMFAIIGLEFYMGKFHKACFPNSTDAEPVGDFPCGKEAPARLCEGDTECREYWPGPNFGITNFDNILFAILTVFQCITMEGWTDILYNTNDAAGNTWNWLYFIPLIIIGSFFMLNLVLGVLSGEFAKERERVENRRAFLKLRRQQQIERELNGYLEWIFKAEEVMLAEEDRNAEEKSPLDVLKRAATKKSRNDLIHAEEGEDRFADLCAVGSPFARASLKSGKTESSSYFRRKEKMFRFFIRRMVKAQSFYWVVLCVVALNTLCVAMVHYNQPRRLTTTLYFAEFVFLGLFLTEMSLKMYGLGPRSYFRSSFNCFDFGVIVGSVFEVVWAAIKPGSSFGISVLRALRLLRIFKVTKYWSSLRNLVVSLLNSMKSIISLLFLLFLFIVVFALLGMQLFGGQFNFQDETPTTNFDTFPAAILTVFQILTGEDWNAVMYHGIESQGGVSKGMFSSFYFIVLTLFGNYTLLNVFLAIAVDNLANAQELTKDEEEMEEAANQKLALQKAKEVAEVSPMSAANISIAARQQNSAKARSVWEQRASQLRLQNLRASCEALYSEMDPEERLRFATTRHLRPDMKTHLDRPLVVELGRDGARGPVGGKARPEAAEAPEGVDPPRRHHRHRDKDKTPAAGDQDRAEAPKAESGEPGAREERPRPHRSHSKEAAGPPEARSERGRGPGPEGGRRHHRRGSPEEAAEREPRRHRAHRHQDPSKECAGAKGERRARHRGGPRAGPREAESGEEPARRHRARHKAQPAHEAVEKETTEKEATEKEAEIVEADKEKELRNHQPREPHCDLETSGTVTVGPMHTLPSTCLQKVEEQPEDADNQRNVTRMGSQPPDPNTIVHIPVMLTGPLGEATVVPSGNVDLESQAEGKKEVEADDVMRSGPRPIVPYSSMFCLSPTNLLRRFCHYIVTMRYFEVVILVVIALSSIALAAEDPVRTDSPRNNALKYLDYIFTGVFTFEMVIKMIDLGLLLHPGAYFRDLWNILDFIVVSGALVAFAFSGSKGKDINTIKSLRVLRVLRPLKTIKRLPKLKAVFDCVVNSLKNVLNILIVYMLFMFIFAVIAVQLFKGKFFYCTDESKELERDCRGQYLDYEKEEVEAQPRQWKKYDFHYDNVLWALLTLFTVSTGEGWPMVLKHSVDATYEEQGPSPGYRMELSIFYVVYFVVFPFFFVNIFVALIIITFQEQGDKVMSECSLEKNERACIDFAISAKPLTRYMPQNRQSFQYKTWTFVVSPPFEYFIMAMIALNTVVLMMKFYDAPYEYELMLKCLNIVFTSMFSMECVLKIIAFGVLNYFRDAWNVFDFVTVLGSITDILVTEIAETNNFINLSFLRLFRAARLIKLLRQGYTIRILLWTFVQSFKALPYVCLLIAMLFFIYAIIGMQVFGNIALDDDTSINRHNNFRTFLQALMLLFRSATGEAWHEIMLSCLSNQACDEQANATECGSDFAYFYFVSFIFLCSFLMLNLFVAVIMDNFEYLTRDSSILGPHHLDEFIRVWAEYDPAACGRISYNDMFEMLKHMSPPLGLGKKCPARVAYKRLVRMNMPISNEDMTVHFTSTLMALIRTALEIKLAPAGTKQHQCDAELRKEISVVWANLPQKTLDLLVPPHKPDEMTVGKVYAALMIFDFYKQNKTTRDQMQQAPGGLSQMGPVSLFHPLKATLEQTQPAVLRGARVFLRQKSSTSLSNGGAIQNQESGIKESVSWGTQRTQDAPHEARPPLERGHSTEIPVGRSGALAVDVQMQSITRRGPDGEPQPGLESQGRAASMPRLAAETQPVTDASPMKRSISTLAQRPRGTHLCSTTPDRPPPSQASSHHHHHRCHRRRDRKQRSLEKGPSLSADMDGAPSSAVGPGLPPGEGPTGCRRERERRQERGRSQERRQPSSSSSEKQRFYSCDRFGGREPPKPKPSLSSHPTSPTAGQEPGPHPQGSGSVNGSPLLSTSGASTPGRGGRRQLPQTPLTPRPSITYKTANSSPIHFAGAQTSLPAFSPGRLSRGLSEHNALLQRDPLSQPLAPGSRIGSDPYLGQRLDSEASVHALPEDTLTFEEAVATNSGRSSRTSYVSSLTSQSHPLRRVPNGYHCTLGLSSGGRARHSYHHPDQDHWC
T1 sequence (P54289 25-956 partner limits assumed): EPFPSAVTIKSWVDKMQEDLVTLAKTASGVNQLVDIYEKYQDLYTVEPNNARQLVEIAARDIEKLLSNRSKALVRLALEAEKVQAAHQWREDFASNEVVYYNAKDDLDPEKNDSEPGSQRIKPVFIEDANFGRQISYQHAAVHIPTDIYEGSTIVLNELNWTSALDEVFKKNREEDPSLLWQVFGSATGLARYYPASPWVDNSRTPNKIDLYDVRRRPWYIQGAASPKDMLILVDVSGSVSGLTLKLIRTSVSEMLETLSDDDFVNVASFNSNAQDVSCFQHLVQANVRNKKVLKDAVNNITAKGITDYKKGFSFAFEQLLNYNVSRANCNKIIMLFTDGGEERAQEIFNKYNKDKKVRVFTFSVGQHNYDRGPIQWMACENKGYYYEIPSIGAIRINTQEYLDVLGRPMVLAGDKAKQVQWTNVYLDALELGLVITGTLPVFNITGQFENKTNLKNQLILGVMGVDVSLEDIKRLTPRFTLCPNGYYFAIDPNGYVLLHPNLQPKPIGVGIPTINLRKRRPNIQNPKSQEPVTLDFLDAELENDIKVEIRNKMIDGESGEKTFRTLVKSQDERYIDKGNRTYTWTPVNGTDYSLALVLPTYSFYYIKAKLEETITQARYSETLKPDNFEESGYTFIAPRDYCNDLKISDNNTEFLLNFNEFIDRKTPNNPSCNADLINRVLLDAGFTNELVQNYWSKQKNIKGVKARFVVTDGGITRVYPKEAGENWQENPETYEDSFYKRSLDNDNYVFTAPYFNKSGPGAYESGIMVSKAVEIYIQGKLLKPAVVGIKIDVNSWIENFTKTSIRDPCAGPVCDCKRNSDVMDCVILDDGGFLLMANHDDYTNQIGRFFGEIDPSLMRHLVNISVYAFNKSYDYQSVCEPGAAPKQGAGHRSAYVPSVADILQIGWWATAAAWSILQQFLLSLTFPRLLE
T1 sequence (P54289 957-1103 partner limits assumed): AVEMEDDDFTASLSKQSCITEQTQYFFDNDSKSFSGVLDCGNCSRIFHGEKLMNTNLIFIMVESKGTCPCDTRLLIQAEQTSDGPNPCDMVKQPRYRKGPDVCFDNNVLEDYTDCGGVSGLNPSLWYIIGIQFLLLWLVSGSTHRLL
T1 sequence (P54284 whole entry partner): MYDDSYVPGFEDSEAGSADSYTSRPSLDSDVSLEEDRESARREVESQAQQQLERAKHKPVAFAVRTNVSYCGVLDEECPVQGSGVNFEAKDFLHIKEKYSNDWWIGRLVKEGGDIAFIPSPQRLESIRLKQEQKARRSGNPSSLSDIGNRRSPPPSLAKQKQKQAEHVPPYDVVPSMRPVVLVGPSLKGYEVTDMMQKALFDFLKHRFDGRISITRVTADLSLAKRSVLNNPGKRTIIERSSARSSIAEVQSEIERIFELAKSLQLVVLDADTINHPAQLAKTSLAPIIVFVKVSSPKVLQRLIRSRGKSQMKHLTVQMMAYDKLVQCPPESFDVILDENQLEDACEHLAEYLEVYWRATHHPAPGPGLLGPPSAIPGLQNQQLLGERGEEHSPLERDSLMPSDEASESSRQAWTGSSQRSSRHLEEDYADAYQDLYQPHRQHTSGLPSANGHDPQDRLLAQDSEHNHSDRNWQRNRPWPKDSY

CC(C)C[C@H](NC(=O)N1CCCCCC1)C(=O)N[C@@H](Cc1ccc(OCc2ccccc2)cc1)C(=O)Nc1cccnc1 [Example 254, [S-(R*,R*)]-Azepane-1-carboxylic acid {1-[2-(4-benzyloxy-phenyl)-1-(pyridin-3-ylcarbamoyl)-ethylcarbamoyl]-3-methyl-butyl}-amide]
inhibition at 1 µM: 39% | inhibition at 10 µM: 83% | IC50: 1.6 µM

CC(C)C[C@H](NC(=O)N1CCCCCC1)C(=O)N[C@@H](Cc1ccc(OCc2ccccc2)cc1)C(=O)NCc1ccc(CN)cc1 [Example 217, [S-(R*,R*)]-Azepane-1-carboxylic acid {1-[1-(4-aminomethyl-benzylcarbamoyl)-2-(4-benzyloxy-phenyl)-ethylcarbamoyl]-3-methyl-butyl}-amide]
inhibition at 1 µM: 35% | inhibition at 10 µM: 75% | IC50: 5 µM

CC(C)C[C@H](NC(=O)N1CCCCCC1)C(=O)N[C@@H](Cc1ccc(OCc2ccccc2)cc1)C(=O)N1CCC(N2CCCCC2)CC1 [Example 185, [S-(R*,R*)]-Azepane-1-carboxylic acid {1-[1-(4-benzyloxy-benzyl)-2-[1,4′]bipiperidinyl-1′-yl-2-oxo-ethylcarbamoyl]-3-methyl-butyl}-amide]
IC50: 2.3 µM

CCC(=O)N[C@@H](CC(C)C)C(=O)N[C@@H](Cc1ccc(OCc2ccccc2)cc1)C(=O)OC(C)(C)C (relative stereo) [Example 117, [S-(R*,R*)]-3-(4-Benzyloxy-phenyl)-2-(4-methyl-2-propionylamino-pentanoylamino)-propionic acid tert-butyl ester]
Inhibition of Calcium Flux in IMR-32 Cells % Inhibition at 10 μM: 66%

CC(C)C[C@H](NC(=O)N1CCCCCC1)C(=O)N[C@@H](Cc1ccc(OCc2ccccc2)cc1)C(=O)NCCc1ccc(O)cc1 (relative stereo) [Example 225, [S-(R*,R*)]-Azepane-1-carboxylic acid (1-{2-(4-benzyloxy-phenyl)-1-[2-(4-hydroxy-phenyl)-ethylcarbamoyl]-ethylcarbamoyl}-3-methyl-butyl)-amide]
Inhibition of Calcium Flux in IMR-32 Cells % Inhibition at 1 μM: 55% | Inhibition of Calcium Flux in IMR-32 Cells % Inhibition at 10 μM: 94%

CC(C)C[C@H](NC(=O)N1CCCCCC1)C(=O)N[C@@H](Cc1ccc(OCc2ccccc2)cc1)C(=O)NCCN1CCCC1=O [Example 170, [S-(R*,R*)]-Azepane-1-carboxylic acid (1-{2-(4-benzyloxy-phenyl)-1-[2-(2-oxo-pyrrolidin-1yl)-ethylcarbamoyl]-ethylcarbamoyl}-3-methyl-butyl)-amide]
IC50: 1.3 µM

CC(C)(C)NC(=O)[C@H](Cc1ccc(OCc2ccccc2)cc1)NC(=O)[C@H](Cc1ccc(OC(C)(C)C)cc1)NC(=O)N1CCCCCC1 [Example 163, [S-(R*,R*)]-Azepane-1-carboxylic acid [1-[2-(4-benzyloxy-phenyl)-1-tert-butylcarbamoyl-ethylcarbamoyl]-2-(4-tert-butoxy-phenyl)-ethyl]-amide]
IC50: 0.49 µM

CC(C)C[C@H](NC(=O)N1CCCCCC1)C(=O)N[C@@H](Cc1ccc(OCc2ccccc2)cc1)C(=O)N1CC(C)OC(C)C1 (stereo partly drawn) [Example 199, [S-(R*,R*)]-Azepane-1-carboxylic acid {1-[1-(4-benzyloxy-benzyl)-2-(2,6-dimethyl-morpholin-4-yl)-2-oxo-ethylcarbamoyl]-3-methyl-butyl}-amide]
inhibition at 1 µM: 36% | inhibition at 10 µM: 86% | IC50: 1.8 µM

CCC(CO)NC(=O)[C@H](Cc1ccc(OCc2ccccc2)cc1)NC(=O)[C@H](CC(C)C)NC(=O)N1CCCCCC1 (relative stereo) [Example 226, [S-(R*,R*)]-Azepane-1-carboxylic acid {1-[2-(4-benzyloxy-phenyl)-1-(1-hydroxymethyl-propylcarbamoyl)-ethylcarbamoyl]-3-methyl-butyl}-amide]
Inhibition of Calcium Flux in IMR-32 Cells % Inhibition at 1 μM: 37% | Inhibition of Calcium Flux in IMR-32 Cells % Inhibition at 10 μM: 84%

CC(C)C[C@H](NC(=O)N1CCCCCC1)C(=O)N[C@@H](Cc1ccc(OCc2ccccc2)cc1)C(=O)Nc1ccc(Br)cc1 (relative stereo) [Example 173, [S-(R*,R*)]-Azepane-1-carboxylic acid {1-[2-(4-benzyloxy-phenyl)-1-(4-bromophenylcarbamoyl)-ethylcarbamoyl]-3-methyl-butyl}-amide]
IC50: 0.28 µM

CC(C)C[C@H](NC(=O)N1CCCCCC1)C(=O)N[C@@H](Cc1ccc(OCc2ccccc2)cc1)C(=O)N1CCN(C)CC1 [Example 176, [S-(R*,R*)]-Azepane-1-carboxylic acid {1-[1-(4-benzyloxy-benzyl)-2-(4-methyl-piperazin-1-yl)-2-oxo-ethylcarbamoyl]-3-methyl-butyl}-amide]
inhibition at 1 µM: 38% | inhibition at 10 µM: 86% | IC50: 1.4 µM

CC(C)(C)NC(=O)[C@H](Cc1ccc(OCc2ccccc2)cc1)NC(=O)[C@@H]1CCCN1C(=O)N1CCCCCC1 [Example 153, [S-(R*,R*)]-1-(Azepane-1-carbonyl)-pyrrolidine-2-carboxylic acid [2-(4-benzyloxy-phenyl)-1tert-butylcarbamoyl-ethyl]-amide]
IC50: 3.7 µM

CC(C)C[C@H](NC(=O)N1CCCCCC1)C(=O)N[C@@H](Cc1ccc(OCc2ccccc2)cc1)C(=O)N1CCN(c2ccc(F)cc2)CC1 (relative stereo) [Example 240, [S-(R*,R*)]-Azepane-1-carboxylic acid (1-{1-(4-benzyloxy-benzyl)-2-[4-(4-fluoro-phenyl)-piperazin-1-yl]-2-oxo-ethylcarbamoyl}-3-methyl-butyl)-amide]
Inhibition of Calcium Flux in IMR-32 Cells % Inhibition at 1 μM: 63% | Inhibition of Calcium Flux in IMR-32 Cells % Inhibition at 10 μM: 86% | IC50: 0.75 µM

CC(C)C[C@H](NC(=O)N1CCCCCC1)C(=O)N[C@@H](Cc1ccc(OCc2ccccc2)cc1)C(=O)N1CCN(C(c2ccccc2)c2ccccc2)CC1 [Example 270, [S-(R*,R*)]-Azepane-1-carboxylic acid {1-[2-(4-benzhydryl-piperazin-1-yl)-1-(4-benzyloxy-benzyl)-2-oxo-ethylcarbamoyl]-3-methyl-butyl}-amide]
IC50: 1.2 µM

CC(C)C[C@H](NC(=O)c1ccc2c(c1)OCO2)C(=O)N[C@@H](Cc1ccc(OCc2ccccc2)cc1)C(=O)OC(C)(C)C (relative stereo) [Example 97, [S-(R*,R*)]-2-{2-[(Benzo[1,3]dioxole-5-carbonyl)-amino]-4-methyl-pentanoylamino}-3-(4-benzyloxy-phenyl)-propionic acid tert-butyl ester]
Inhibition of Calcium Flux in IMR-32 Cells % Inhibition at 1 μM: 30%

CCCCCCNC(=O)[C@H](Cc1ccc(OCc2ccccc2)cc1)NC(=O)[C@H](CC(C)C)NC(=O)N1CCCCCC1 [Example 168, [S-(R*,R*)]-Azepane-1-carboxylic acid {1-[2-(4-benzyloxy-phenyl)-1-hexylcarbamoyl-ethylcarbamoyl]-3-methyl-butyl}-amide]
IC50: 0.68 µM

CC(C)CC(NC(=O)N1CCCCCC1)C(=O)NC(Cc1ccc(OCc2ccccc2)cc1)C(=O)N1CCCC1CNc1ccccc1 (stereo not shown) [Example 218, Azepane-1-carboxylic acid {1-[1-(4-benzyloxy-benzyl)-2-oxo-2-(2-phenylaminomethyl-pyrrolidin-1-yl)-ethylcarbamoyl]-3-methyl-butyl}-amide]
inhibition at 1 µM: 62% | inhibition at 10 µM: 93%

CC(C)C[C@H](NC(=O)N1CCCCCC1)C(=O)N[C@@H](Cc1ccc(OCc2ccccc2)cc1)C(=O)c1cc[nH]n1 (relative stereo) [Example 261, [S-(R*,R*)]-Azepane-1-carboxylic acid {1-[2-(4-benzyloxy-phenyl)-1-(pyrazole-3-carbonyl)-ethylcarbamoyl]-3-methyl-butyl}-amide]
IC50: 2 µM

CC(=O)N1CCN(C(=O)[C@H](Cc2ccc(OCc3ccccc3)cc2)NC(=O)[C@H](CC(C)C)NC(=O)N2CCCCCC2)CC1 [Example 204, [S-(R*,R*)]-Azepane-1-carboxylic acid {1-[2-(4-acetyl-piperazin-1-yl)-1-(4-benzyloxy-benzyl)-2-oxo-ethylcarbamoyl]-3-methyl-butyl}-amide]
inhibition at 1 µM: 13% | inhibition at 10 µM: 66% | IC50: 5.5 µM

CCOC(=O)c1ccc(NC(=O)N[C@@H](CC(C)C)C(=O)N[C@@H](Cc2ccc(OCc3ccccc3)cc2)C(=O)OC(C)(C)C)cc1 (relative stereo) [Example 77, [S-(R*,R*)]-4-(3-{1-[2-(4-Benzyloxy-phenyl)-1tert-butoxycarbonyl-ethylcarbamoyl]-3-methylbutyl}-ureido)-benzoic acid ethyl ester]
Inhibition of Calcium Flux in IMR-32 Cells % Inhibition at 1 μM: 22%

CC(C)C[C@H](NC(=O)Cc1cccnc1)C(=O)N[C@@H](Cc1ccc(OCc2ccccc2)cc1)C(=O)OC(C)(C)C (relative stereo) [Example 119, [S-(R*,R*)]-3-(4-Benzyloxy-phenyl)-2-[4-methyl-2-(2-pyridin-3-yl-acetylamino)pentanoylamino]-propionic acid tert-butyl ester]
Inhibition of Calcium Flux in IMR-32 Cells % Inhibition at 10 μM: 65%

CC(C)C[C@H](NC(=O)N1CCCCCC1)C(=O)N[C@@H](Cc1ccc(OCc2ccccc2)cc1)C(=O)NCCNCc1ccccc1 [Example 252, [S-(R*,R*)]-Azepane-1-carboxylic acid {1-[1-(2-benzylamino-ethylcarbamoyl)-2-(4-benzyloxy-phenyl)-ethylcarbamoyl]-3-methyl-butyl}-amide]
IC50: 0.28 µM

CC(C)C[C@H](NC(=O)N1CCCCCC1)C(=O)N[C@@H](Cc1ccc(OCc2ccccc2)cc1)C(=O)NC1CCN(Cc2ccccc2)CC1 [Example 271, [S-(R*,R*)]-Azepane-1-carboxylic acid {1-[2-(4-benzyloxy-phenyl)-1-(1-benzyl-piperidin-4-ylcarbamoyl)-ethylcarbamoyl]-3-methyl-butyl}-amide]
inhibition at 1 µM: 70% | IC50: 0.84 µM

CSCC[C@H](NC(=O)N1CCCCCC1)C(=O)N[C@@H](Cc1ccc(OCc2ccccc2)cc1)C(=O)NC(C)(C)C [Example 155, [S-(R*,R*)]-Azepane1-carboxylic acid {1-[2-(4-benzyloxy-phenyl)-1-tert-butylcarbamoyl-ethylcarbamoyl]-3-methylsulfanyl-propyl}-amide]
IC50: 2.5 µM
